Structures are written as SMILES.

The term kinact denotes the maximal first-order rate at which the target is inactivated. As a reminder, the IC50 is the concentration needed to halve the response being measured. A high value points to lower potency.

In one assay the target is T1, GST-LSD1 (Homo sapiens, UniProt O60341).
Experiment: not given
Conditions: cited from earlier work.
With `NNCCc1ccccc1` [phenelzine, reference compound], the “concentration needed to extinguish LSD1 activity under MassSQUIRM conditions” value is given as “greater than 10 mM”.

The next assay deals with T1, GST-LSD1. The assay is described as follows: MassSQUIRM LSD1 inhibition assay. As to conditions: 50 µM inhibitor, 30 min, 215 nM GST-LSD1. The assay is classed as biochemical.
As to `Cl.Cl.NNCCc1ccc(NC(=O)CCCc2ccccc2)cc1` [12d], the “LSD1 inhibition in MassSQUIRM assay (in words)” value was “very substantial LSD1 inhibition”.

Turning to `NNCCc1ccccc1` [phenelzine, reference compound], the “LSD1 inhibition in MassSQUIRM assay (in words)” value is given as “negligible impact on LSD1 inhibition”.

The next assay concerns H3K4Me2 in H460 cells. The assay is described as follows: Western blot of H3K4Me2 in H460 cells. The assay is classed as cell-based. As to conditions: H460, 48 h, compared with LNCaP.
Regarding `Cl.Cl.NNCCc1ccc(NC(=O)CCCc2ccccc2)cc1` [12d], the “effect on H3K4Me2 levels (in words)” value is reported as “comparable dose-response effects”.

The next assay deals with immature primary cortical neurons. The assay is described as follows: Oxidative toxicity. The assay is classed as cell-based, rat. As to conditions: 0.5 µM, 5 mM HCA, MTT.
As to `Cl.Cl.NNCCc1ccc(NC(=O)CCCc2ccccc2)cc1` [12d], the “survival of neurons after HCA treatment (in words)” value is reported as “significantly enhanced survival”.

The test system of another assay is H460 cells.
Experiment: not given
Details: not given
On to `CC(/C=C/C(=O)NO)=C\[C@@H](C)C(=O)c1ccc(N(C)C)cc1` [TSA], for which the “combination effect on inhibition of H460 cell proliferation (in words)” value (“combination effect on inhibition” for short) is recorded as “moderate antagonism” and the “combination index (CI)” value is over 1.

On to `Nc1ccccc1NC(=O)c1ccc(CNC(=O)OCc2cccnc2)cc1` [MS-275], for which the “combination effect on inhibition” value is recorded as “additive to synergistic effects”.

For the compound `Nc1ncn([C@@H]2O[C@H](CO)[C@@H](O)[C@H]2O)c(=O)n1` [azacytidine], the “combination effect on inhibition” value is given as “moderate antagonism”.

`Cc1[nH]c2ccccc2c1CCNCc1ccc(/C=C/C(=O)NO)cc1` [LBH-589]: the “combination effect on inhibition” value is recorded as “additive to synergistic effects”.

As to `Nc1ccccc1NC(=O)c1ccc(CNc2nccc(-c3cccnc3)n2)cc1` [MGCD0103], the “combination effect on inhibition” value is listed as “moderate antagonism” and the “combination index (CI)” value was over 1.

For the next assay, the system named is H3K4Me2 in LNCaP cells. In words: Western blot of histone H3 methylation in LNCaP cells. The assay is classed as cell-based. Conditions: 10 µM, normalized to vehicle, 3 biological replicates. A general note: A western blot detects proteins with antibodies after separation by electrophoresis.
Regarding `Cl.Cl.NNCCc1ccc(NC(=O)CCCc2ccccc2)cc1` [12d], the “H3K4Me2 band density time course (in words)” value was “Statistically significant increases were observed at 6, 24, 48, 72, and 96 h but not at 30 min and 12 h”.

Staying with this assay, now noted: 0.4–10 µM, 48 h.
In the case of `Cl.Cl.NNCCc1ccc(NC(=O)CCCc2ccccc2)cc1` [12d], the “changes in H3K4Me1, H3K4Me3, unmethylated H3K4, H3K9Me2, H3K9Ac, H3K36Me3 (in words)” value was “no significant reproducible changes” and the “effect on LSD1 protein levels (in words)” value is on record as “no discernible effect”.

The assay is the same for the next values; noted with them: 48 h, 3 µM and 10 µM, three biological replicates.
`Cl.Cl.NNCCc1ccc(NC(=O)CCCc2ccccc2)cc1` [12d]: the “H3K4Me2 band density (in words)” value was “Statistically significant increases”.

Still in this assay, the particulars now being: 48 h, concentrations up to 10 µM.
With `CN(C(=O)CCCc1ccccc1)c1ccc(CCNN)cc1.O=C(O)C(=O)O` [12l], the “H3K4Me2 changes (in words)” value is “did not show changes in H3K4Me2”.

The assay is the same for the next values; noted with them: 48 h, concentrations up to 40 µM.
Regarding `NNCCc1ccccc1` [phenelzine, reference compound], the “H3K4Me2 changes (in words)” value was “did not induce H3K4Me2 changes”.

For the next assay, the system named is H460 cells. In words: [3H] thymidine incorporation proliferation assay in H460 cells. The assay is classed as cell-based. Conditions: H460, 48 h, 80 µM. For orientation: Dividing cells build labelled thymidine or BrdU into new DNA.
As to `NNCCc1ccccc1` [phenelzine, reference compound], the “reduction in 3H-thymidine incorporation” value is reported as under 50%.

For the next assay, the target named is T1, GST-LSD1. The assay is described as follows: biochemical. The assay is classed as biochemical.
Details: not given
For the compound `NNCCc1ccc(NC(=O)CCCc2ccc([N+](=O)[O-])cc2)cc1` [12i], the kinact is 0.0035 s⁻¹.

In the case of `NNCCc1ccc(NC(=O)/C=C/c2ccccc2)cc1` [compound 13], the kinact is 0.00283 s⁻¹.

Consider `CNNCCc1ccccc1.Cl.Cl` [9a], for which the “LSD1 inhibitory action (in words)” value is “negated LSD1 inhibitory action”.

Turning to `NNCCc1ccc(N(Cc2ccccc2)C(=O)CCCc2ccccc2)cc1` [12m], the kinact was 0.00367 s⁻¹.

Regarding `NNCCCOc1ccccc1` [10b], the KI (inactivation) amounted to 12 ± 2.1 µM and the maximal inactivation rate constant (kinact) was 0.00367 s⁻¹.

For the compound `NNCCOc1ccccc1` [10a], the KI (inactivation) was 44 ± 9.7 µM and the kinact was 0.0025 s⁻¹.

Regarding `NNCCc1ccc(NC(=O)CCc2c[nH]c3ccccc23)cc1` [15a], the maximal inactivation rate constant (kinact) was 0.0035 s⁻¹.

For the compound `CN(C(=O)CCCc1ccccc1)c1ccc(CCNN)cc1.O=C(O)C(=O)O` [12l], the “fold weaker LSD1 inhibitor than bizine” value was ~ 30 fold and the kinact was 0.004 s⁻¹.

Regarding `COc1ccc(CCCNN)cc1.Cl.Cl` [9e], the KI (inactivation) stood at 8 ± 3.5 µM, the “LSD1 inhibitory action (in words)” value is “made little difference” and the kinact was 0.0025 s⁻¹.

Take `NNCCc1ccc(NC(=O)CCc2ccccc2)cc1` [12c]: the inactivation rate constant (kinact) was 0.004 s⁻¹.

Take `CN(C)NCCc1ccccc1` [9b]: the concentration for half-maximal inhibition (IC50) is over 100 µM.

`NNCCc1ccc(NC(=O)CCCc2ccc(Cl)cc2)cc1` [12f]: the kinact was 0.00283 s⁻¹.

Consider `NNCCc1ccc(NC(=O)c2ccccc2)cc1` [12a], for which the KI (inactivation) worked out at 0.28 ± 0.11 µM and the maximal inactivation rate constant (kinact) was 0.00317 s⁻¹.

On to `NNCCCN1CCOCC1` [compound 11], for which the 50% inhibitory concentration (IC50) is over 100 µM and the “LSD1 inhibitory action (in words)” value was “not compatible with LSD1 inhibition”.

With `NNCCc1ccc(NC(=O)CCCCc2ccccc2)cc1` [12e], the kinact is 0.00367 s⁻¹.

On to `NNCCc1ccc(NC(=O)Cc2ccccc2)cc1` [12b], for which the KI (inactivation) was 0.37 ± 0.033 µM and the kinact was 0.00333 s⁻¹.

Compound `CNNCCCc1ccc(OC)cc1` [9f] had an IC50 of over 100 µM.

Regarding `NNCCCCc1ccccc1` [9h], the KI (inactivation) was 22 ± 3 µM and the kinact is 0.002 s⁻¹.

Staying with this assay, now noted: mechanism-based inactivation; extrapolated to zero substrate.
In the case of `NNCCc1ccc(N(Cc2ccccc2)C(=O)CCCc2ccccc2)cc1` [12m], the KI (inactivation) is 1.6 ± 0.49 µM.

With `CN(C(=O)CCCc1ccccc1)c1ccc(CCNN)cc1.O=C(O)C(=O)O` [12l], the KI (inactivation) is 2 ± 0.73 µM.

As for `NNCCc1ccc(NC(=O)CCCCc2ccccc2)cc1` [12e], the KI (inactivation) was 0.26 ± 0.11 µM.

Staying with this assay, now noted: read-out: kinact/Ki(inact).
For `NNCCc1ccc(NC(=O)CCCc2ccc([N+](=O)[O-])cc2)cc1` [12i], the kinact/KI is 12300 M⁻¹ s⁻¹.

For `NNCCc1ccc(NC(=O)/C=C/c2ccccc2)cc1` [compound 13], the kinact/KI was 28300 M⁻¹ s⁻¹.

Consider `NNCCc1ccc(N(Cc2ccccc2)C(=O)CCCc2ccccc2)cc1` [12m], for which the kinact/KI was 2330 M⁻¹ s⁻¹.

In the case of `NNCCCOc1ccccc1` [10b], the kinact/KI was 300 M⁻¹ s⁻¹.

On to `NNCCOc1ccccc1` [10a], for which the kinact/KI was 56.7 M⁻¹ s⁻¹.

`NNCCc1ccc(NC(=O)CCc2c[nH]c3ccccc23)cc1` [15a]: the kinact/KI is 16700 M⁻¹ s⁻¹.

As to `CN(C(=O)CCCc1ccccc1)c1ccc(CCNN)cc1.O=C(O)C(=O)O` [12l], the kinact/KI was 2000 M⁻¹ s⁻¹.

As to `COc1ccc(CCCNN)cc1.Cl.Cl` [9e], the kinact/KI is 317 M⁻¹ s⁻¹.

Consider `NNCCc1ccc(NC(=O)CCc2ccccc2)cc1` [12c], for which the kinact/KI was 15300 M⁻¹ s⁻¹.

For `NNCCc1ccc(NC(=O)CCCc2ccc(Cl)cc2)cc1` [12f], the kinact/KI was 18300 M⁻¹ s⁻¹.

Turning to `NNCCc1ccc(NC(=O)c2ccccc2)cc1` [12a], the kinact/KI is 11700 M⁻¹ s⁻¹.

Take `NNCCc1ccc(NC(=O)CCCCc2ccccc2)cc1` [12e]: the kinact/KI is 14300 M⁻¹ s⁻¹.

For `NNCCc1ccc(NC(=O)Cc2ccccc2)cc1` [12b], the kinact/KI was 9000 M⁻¹ s⁻¹.

For the compound `NNCCCCc1ccccc1` [9h], the kinact/KI was 91.7 M⁻¹ s⁻¹.

The values above are taken from PMC4076021 (ACS chemical biology, 2014).
